Assays:
NA (H1N1, N295S) = format: biochemical, Influenza A virus A/California/04/2009(H1N1)(N295S); conditions: 200 µM
NA (H3N2, E119V) = format: biochemical, Influenza A virus A/Babol/36/2005(H3N2)(E119V); conditions: 200 µM
H1N1 (A/HA-58pdm-TR) = assay: microbe, parasite or virus in culture; format: cell-based, oseltamivir-resistant strain; conditions: Influenza A virus, H1N1, MDCK

| Compound | Inhibition rate (%) NA(H1N1, N295S) (NA (H1N1, N295S)) [%] | Inhibition rate (%) NA(H3N2, E119V) (NA (H3N2, E119V)) [%] | IC50 (H1N1 (A/HA-58pdm-TR)) [µM] |
| --- | --- | --- | --- |
| C/C(=C\C(=O)CC(C)C(=O)O)[C@H]1C[C@H](O)[C@@]2(C)C3=C(C(=O)C[C@]12C)[C@@]1(C)CCC(=O)C(C)(C)[C@@H]1C[C@@H]3O (stereo partly shown) [Compound 8, Ganoderenic acid A] | 12.4 ± 1.8 | 29.1 ± 2.3 | – |
| CC(CC(=O)C[C@@H](C)[C@H]1CC(=O)[C@@]2(C)C3=C(C(=O)[C@@H](O)[C@]12C)[C@@]1(C)CC[C@H](O)C(C)(C)[C@@H]1CC3=O)C(=O)O (stereo partly shown) [Compound 18, Ganoderic acid C6] | 17.6 ± 3.5 | 20.7 ± 0.5 | – |
| CC(=O)O[C@H]1C[C@H]([C@H](C)CC/C=C(\C)C(=O)O)[C@@]2(C)CC=C3C(=CC[C@H]4C(C)(C)C(=O)CC[C@]34C)[C@]12C [Compound 1, Ganoderic acid T-Q] | – | 55.4 ± 4.1 | – |
| CC(=O)O[C@@H]1C(=O)C2=C([C@@H](O)C[C@H]3C(C)(C)[C@@H](O)CC[C@]23C)[C@]2(C)C(=O)C[C@H]([C@H](C)CC(=O)CC(C)C(=O)O)[C@@]12C (stereo partly shown) [Compound 11, Ganoderic acid K] | 14.2 ± 2.9 | 33.5 ± 2.4 | – |
| C/C(=C\CC[C@@H](C)[C@H]1CC[C@@]2(C)C3=C(CC[C@]12C)[C@@]1(C)CCC(=O)C(C)(C)[C@@H]1CC3=O)C(=O)O [Compound 20, Ganoderic acid DM] | 19.0 ± 2.4 | 28.8 ± 0.5 | – |
| C/C(=C\CC[C@@H](C)[C@H]1CC[C@@]2(C)C3=CC[C@H]4C(C)(C)[C@@H](O)CC[C@]4(C)C3=CC[C@]12C)CO [Compound 26, Ganoderol B] | 19.9 ± 1.1 | 19.1 ± 6.1 | – |
| CC(CC(=O)C[C@@H](C)[C@H]1C[C@H](O)[C@@]2(C)C3=C(C(=O)C[C@]12C)[C@@]1(C)CCC(=O)C(C)(C)[C@@H]1CC3)C(=O)O (stereo partly shown) [Compound 21, Ganolucidic acid A] | 21.0 ± 4.2 | 22.9 ± 3.8 | – |
| C/C(=C\[C@@H](O)C[C@@H](C)[C@H]1CC(=O)[C@@]2(C)C3=C(C(=O)C[C@]12C)[C@@]1(C)CCC(=O)C(C)(C)[C@@H]1C[C@@H]3O)C(=O)O [Compound 23, Ganoderic acid LM2] | 15.4 ± 0.6 | 12.9 ± 1.0 | – |
| CC(=O)O[C@@H]1C(=O)C2=C(C(=O)C[C@H]3C(C)(C)[C@@H](O)CC[C@]23C)[C@]2(C)C(=O)C[C@H]([C@H](C)CC(=O)CC(C)C(=O)O)[C@@]12C (stereo partly shown) [Compound 13, Ganoderic acid H] | 16.9 ± 2.4 | 27.9 ± 1.5 | – |
| C/C(=C\CC[C@@H](C)[C@H]1CC[C@@]2(C)C3=CC[C@H]4C(C)(C)[C@@H](O)CC[C@]4(C)C3=CC[C@]12C)C(=O)O [Compound 6, Ganoderic acid Y] | 16.9 ± 2.8 | 23.2 ± 3.4 | – |
| C[C@H](CC[C@H](O)[C@](C)(O)CO)[C@H]1CC[C@@]2(C)C3=CC[C@H]4C(C)(C)C(=O)CC[C@]4(C)C3=CC[C@]12C [Compound 29, Ganodermanontriol] | 7.9 ± 3.2 | 12.2 ± 3.4 | – |
| C/C(=C\[C@@H](O)C[C@@H](C)[C@H]1CC(=O)[C@@]2(C)C3=C(C(=O)C[C@]12C)[C@@]1(C)CC[C@H](O)C(C)(C)[C@@H]1CC3=O)C(=O)O [Compound 22, Ganoderic acid Zeta] | 25.5 ± 4.9 | 18.7 ± 4.5 | – |
| C/C(C=O)=C\CC[C@@H](C)[C@H]1CC[C@@]2(C)C3=C(CC[C@]12C)[C@@]1(C)CCC(=O)C(C)(C)[C@@H]1CC3=O [Compound 31, Lucialdehyde B] | 11.2 ± 1.3 | 43.3 ± 1.0 | – |
| C/C(=C/CC[C@@H](C)[C@H]1CC[C@@]2(C)C3=CC[C@H]4C(C)(C)C(=O)CC[C@]4(C)C3=CC[C@]12C)C(=O)O [Compound 5, Ganoderic acid S] | 34.1 ± 2.2 | 44.9 ± 3.2 | – |
| C/C(=C\CC[C@@H](C)[C@H]1C[C@H](O)[C@@]2(C)C3=CC[C@H]4C(C)(C)C(=O)CC[C@]4(C)C3=CC[C@]12C)C(=O)O [Compound 2, Ganoderic acid TR] | – | 59.2 ± 1.9 | 245 |
| C[C@H](CC(=O)C[C@@H](C)[C@H]1C[C@H](O)[C@@]2(C)C3=C(C(=O)C[C@]12C)[C@@]1(C)CCC(=O)C(C)(C)[C@@H]1C[C@@H]3O)C(=O)O [Compound 7, Ganoderic acid A] | 15.3 ± 1.8 | 32.1 ± 2.7 | – |

| Compound | Inhibition rate (%) NA(H1N1, N295S) (NA (H1N1, N295S)) [%] | Inhibition rate (%) NA(H3N2, E119V) (NA (H3N2, E119V)) [%] | IC50 (H1N1 (A/HA-58pdm-TR)) [µM] |
| --- | --- | --- | --- |
| C/C(=C\C(=O)CC(C)C(=O)O)C1CC(O)C2(C)C3=C(C(=O)CC12C)C1(C)CCC(O)C(C)(C)C1CC3O (stereo not shown) [Compound 16, Ganoderenic acid C] | 13.2 ± 2.2 | 37.5 ± 2.4 | – |
| C/C(=C/CC[C@@H](C)[C@H]1CC[C@@]2(C)C3=CC[C@H]4C(C)(C)C(=O)CC[C@]4(C)C3=CC[C@]12C)C(=O)O [Compound 4, Ganoderic acid Sz] | 29.3 ± 5.1 | 22.5 ± 0.3 | – |
| CC(=O)O[C@H]1C[C@H]([C@H](C)CC/C=C(\C)C(=O)O)[C@@]2(C)CC=C3C(=CC[C@H]4C(C)(C)[C@@H](O)CC[C@]34C)[C@]12C [Compound 3, Ganoderic acid T-N] | 27.5 ± 1.4 | 43.6 ± 1.2 | – |
| CC(CC(=O)C[C@@H](C)[C@H]1CC(=O)[C@@]2(C)C3=C(C(=O)C[C@]12C)[C@@]1(C)CC[C@H](O)C(C)(C)[C@@H]1C[C@@H]3O)C(=O)O (stereo partly shown) [Compound 14, Ganoderic acid B] | 12.8 ± 1.4 | 38.7 ± 1.6 | – |
| C/C(=C\C(=O)CC(C)C(=O)O)[C@H]1CC(=O)[C@@]2(C)C3=C(C(=O)C[C@]12C)[C@@]1(C)CCC(=O)C(C)(C)[C@@H]1CC3=O (stereo partly shown) [Compound 15, Ganoderenic acid F] | 24.4 ± 4.4 | 24.2 ± 3.9 | – |
| C[C@H](CC(=O)C[C@@H](C)[C@H]1C[C@H](O)[C@@]2(C)C3=C(C(=O)C[C@]12C)[C@@]1(C)CC[C@H](O)C(C)(C)[C@@H]1C[C@@H]3O)C(=O)O [Compound 9, Ganoderic acid C2] | 13.7 ± 2.4 | 45.4 ± 1.1 | – |
| C/C(=C\CC[C@@H](C)[C@H]1CC[C@@]2(C)C3=CC[C@H]4C(C)(C)C(=O)CC[C@]4(C)C3=CC[C@]12C)CO [Compound 25, Ganoderol A] | 22.6 ± 1.8 | 18.2 ± 2.7 | – |
| C[C@H](CCC=C(CO)CO)[C@H]1CC[C@@]2(C)C3=CC[C@H]4C(C)(C)C(=O)CC[C@]4(C)C3=CC[C@]12C [Compound 27, Ganoderiol F] | 9.5 ± 4.5 | 16.8 ± 1.2 | – |
| C[C@H](CC[C@H](O)C(C)(C)O)[C@H]1CC[C@@]2(C)C3=CC[C@H]4C(C)(C)C(=O)CC[C@]4(C)C3=CC[C@]12C [Compound 28, Ganodermanondiol] | 19.0 ± 4.2 | 34.2 ± 0.9 | – |
| C[C@H](CC(=O)C[C@@H](C)[C@H]1CC(=O)[C@@]2(C)C3=C(C(=O)C[C@]12C)[C@@]1(C)CCC(=O)C(C)(C)[C@@H]1C[C@@H]3O)C(=O)O [Compound 19, Ganoderic acid C1] | 14.7 ± 3.9 | 32.0 ± 3.4 | – |
| CC(=O)O[C@@H]1C(=O)C2=C(C(=O)C[C@H]3C(C)(C)C(=O)CC[C@]23C)[C@]2(C)C(=O)C[C@H]([C@H](C)CC(=O)CC(C)C(=O)O)[C@@]12C (stereo partly shown) [Compound 24, Ganoderic acid F] | 17.6 ± 2.0 | 19.9 ± 2.6 | – |
| Ganoderenic acid D [Compound 17] | 13.8 ± 3.1 | 32.2 ± 3.4 | – |
| C/C(C=O)=C\CC[C@@H](C)[C@H]1CC[C@@]2(C)C3=CC[C@H]4C(C)(C)[C@@H](O)CC[C@]4(C)C3=CC[C@]12C [Compound 30, Lucialdehyde A] | 5.8 ± 2.4 | 25.9 ± 8.1 | – |
| C/C(=C\C(=O)CC(C)C(=O)O)[C@H]1CC(=O)[C@@]2(C)C3=C(C(=O)C[C@]12C)[C@@]1(C)CC[C@H](O)C(C)(C)[C@@H]1CC3=O (stereo partly shown) [Compound 12, Ganoderenic acid H] | 12.8 ± 5.1 | 38.6 ± 2.3 | – |
| CC(CC(=O)C[C@@H](C)[C@H]1CC(=O)[C@@]2(C)C3=C(C(=O)C[C@]12C)[C@@]1(C)CC[C@H](O)C(C)(C)[C@@H]1CC3=O)C(=O)O (stereo partly shown) [Compound 10, Ganoderic acid AM1] | 9.3 ± 1.6 | 31.3 ± 3.2 | – |

From article PMC4549708, “Inhibition of neuraminidase by Ganoderma triterpenoids and implications for neuraminidase inhibitor design” (Scientific Reports, 2015)
